PubChem BioAssay (NCI)
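Test compounds were applied to cells in 96-well plates for 48 hours at 5 doses. GI50: concentration for 50% inhibition of growth. TGI: total growth inhibition.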

Tests used:
Assay in all cases: DTP human tumour cell line panel, 48 h
KM12 colon = system: KM12 colon
RPMI-8226 leukemia = system: RPMI-8226 leukemia
OVCAR-4 ovarian = system: OVCAR-4 ovarian
SK-OV-3 ovarian = system: SK-OV-3 ovarian
SK-MEL-28 melanoma = system: SK-MEL-28 melanoma
NCI-H226 lung = system: NCI-H226 lung
MALME-3M melanoma = system: MALME-3M melanoma
CCRF-CEM leukemia = system: CCRF-CEM leukemia
NCI-H460 lung = system: NCI-H460 lung
TK-10 renal = system: TK-10 renal

Structure (SMILES) | GI50 (KM12 colon) [µM] | TGI (KM12 colon) [µM] | GI50 (RPMI-8226 leukemia) [µM] | TGI (RPMI-8226 leukemia) [µM] | GI50 (OVCAR-4 ovarian) [µM] | TGI (OVCAR-4 ovarian) [µM] | TGI (SK-OV-3 ovarian) [µM] | GI50 (SK-MEL-28 melanoma) [µM] | TGI (SK-MEL-28 melanoma) [µM] | GI50 (NCI-H226 lung) [µM] | TGI (NCI-H226 lung) [µM] | GI50 (MALME-3M melanoma) [µM] | TGI (MALME-3M melanoma) [µM] | GI50 (CCRF-CEM leukemia) [µM] | TGI (CCRF-CEM leukemia) [µM] | GI50 (NCI-H460 lung) [µM] | TGI (NCI-H460 lung) [µM] | GI50 (TK-10 renal) [µM] | TGI (TK-10 renal) [µM] | GI50 (SK-OV-3 ovarian) [µM]
CCNC(=O)C#CC(=O)NCC | > 10 | > 100 | > 10 | > 62.8 | > 10 | > 100 | > 100 | > 100 | > 100 | > 100 | > 100 | > 100 | > 100 | > 10 | > 72.3 | > 10 | > 100 | > 10 | > 100 | 
COc1cccc(C(=O)N2CCc3ccccc32)c1OC |  | > 100 |  | > 100 |  | > 100 | > 100 |  | > 100 |  | > 100 |  | > 100 |  | > 100 |  | > 100 |  | > 100 | 
C1CCN(c2nsc(N3CCCCC3)n2)CC1 |  | > 100 |  | > 100 |  | > 100 | > 100 |  | > 100 |  | > 100 |  | > 100 |  | > 100 |  | > 100 |  | > 100 | 
CCCCCCCCCCN(CCCCCCCCCC)CC(=O)c1ccc2cc(Br)c3ccccc3c2c1 | 1.88 | 3.66 | 2.27 | 4.88 | 2.38 | 5.16 | 17.6 | 1.84 | 3.32 | 1.77 | 3.47 | 1.71 | 3.57 | 2.36 | 6.96 | 1.98 | 3.98 | 1.76 | 3.26 | 4.94
CC[C@@]1(O)C(=O)NCc2c1cc1n(c2=O)Cc2cc3c(N)cccc3nc2-1 | 10.6 | > 36.9 | 4.23 | > 32.1 | 11.4 | > 41.5 | > 86.1 | 8.8 | > 77.7 | 2.03 | > 38.9 | 1.1 |  | 0.185 | > 19.5 | 0.305 | 27.8 | 20.1 | > 52.8 | 4.54
O=C(Nc1nc2ccccc2n1Cc1ccccc1)NC12CC3CC(CC(C3)C1)C2 |  | > 100 |  | > 100 |  | 82.8 | > 100 |  | > 100 |  | > 100 |  | > 100 |  | > 100 |  | > 100 |  | > 100 | 
CC(=O)OCCOCNC(=S)N/N=C(\C)c1cnc2ccccc2n1 |  | > 100 |  | > 100 |  | > 100 | > 100 |  | > 100 |  | > 100 |  | > 100 |  | 90.2 |  | > 100 |  | > 100 | 
COc1cc2c3c(n(CCCNCCN)c(=O)c2cc1OC)-c1cc2c(cc1C3=O)OCO2 | 1.48 | 7.19 | 0.475 | 3.02 | 0.475 | 2.47 | > 100 | 0.822 | 2.95 | 1.1 | 2.55 | 0.654 | 7.74 | < 0.0105 | 0.339 | 1.24 | > 49.9 | 2.9 | 18.9 | > 100
Clc1ccc2[nH]cc(-c3nc(-c4c[nH]c5ncccc45)cs3)c2c1 | 3.17 | 12.2 | 3.34 | 77.1 | 2.85 | 36.5 | 39 | 6.43 | 20.1 | 3.69 | 22.2 | 5.17 | 19 | 4.14 | > 100 | 2.56 | 9.15 | 4.71 | 38.1 | 6.16
Cc1c(C(=O)c2ccccc2C(=O)O)c2ccccc2n1C |  | > 100 |  | > 100 |  | > 100 | > 100 |  | > 100 |  | > 100 |  | > 100 |  | > 100 |  | > 100 |  | > 100 | 
COc1ccccc1NC(=O)n1nc(N)c2ccccc21 | 47.4 | > 100 | 48.7 | > 100 | > 68.1 | > 100 | > 100 | > 100 | > 100 | > 74.7 | > 100 | > 100 | > 100 | > 100 | > 100 | 47.6 | > 100 | 64.2 | > 100 | > 100
O=[N+]([O-])c1ccc(N/N=C/c2c(O)ccc3ccccc23)nc1 | 8.73 | > 100 | > 100 | > 100 | 0.783 | > 100 | > 100 | > 100 | > 100 | 93.8 | > 100 | 27.8 | > 100 | 0.918 | > 100 | 3.3 | > 100 | 55.9 | > 100 | > 100
CN(C)N1C(=O)c2ccccc2NC1c1ccccc1 (stereo not drawn) |  | > 100 |  | > 100 |  | > 100 | > 100 |  | > 100 |  | > 100 |  | > 100 |  | > 100 |  | > 100 |  | > 100 | 
